From patent US20080287493A1, “ARYLMETHYLEN SUBSTITUTED N-ACYL-Y-AMINOALCOHOLS” (priority 2007, published 2008) come the findings set out here.

pEC50, pIC50: −log10 of the molar value.

Assay [1] addresses T1, human FSH receptor (Homo sapiens, UniProt P23945).
T1 construct: expressed in transfected cells; host or cells: CHO cells (hFSHR clone 16)
T1 sequence (P23945 18-695): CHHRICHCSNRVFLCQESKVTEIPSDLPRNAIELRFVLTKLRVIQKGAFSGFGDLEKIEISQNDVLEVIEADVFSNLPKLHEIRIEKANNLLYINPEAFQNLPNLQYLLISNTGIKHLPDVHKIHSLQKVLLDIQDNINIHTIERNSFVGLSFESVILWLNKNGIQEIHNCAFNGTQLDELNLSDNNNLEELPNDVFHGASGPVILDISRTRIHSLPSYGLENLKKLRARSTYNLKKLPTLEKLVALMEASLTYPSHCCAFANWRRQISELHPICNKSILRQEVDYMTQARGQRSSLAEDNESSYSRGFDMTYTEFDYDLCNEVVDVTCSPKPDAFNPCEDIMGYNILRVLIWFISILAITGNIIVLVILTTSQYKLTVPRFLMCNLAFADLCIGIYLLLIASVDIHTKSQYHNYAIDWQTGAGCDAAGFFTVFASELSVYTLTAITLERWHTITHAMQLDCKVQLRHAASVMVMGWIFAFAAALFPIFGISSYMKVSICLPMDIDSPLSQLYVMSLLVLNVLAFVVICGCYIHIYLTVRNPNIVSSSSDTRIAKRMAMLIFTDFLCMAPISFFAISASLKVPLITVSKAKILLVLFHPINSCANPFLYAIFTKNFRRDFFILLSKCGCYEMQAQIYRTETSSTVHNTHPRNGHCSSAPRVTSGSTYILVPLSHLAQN
As to the kind of experiment: HTRF assay for measuring cAMP in cells, test for antagonism (in the presence of hFSH). It counts as cell-based. The following applies: hFSHR clone 16 cells (CHO cells stably transfected with the human FSH receptor); in the presence of 1e-9 mol/l hFSH; 37° C. for 2 h; read-out: IC50 (FSH antagonistic effect in the HTRF assay). Here is the method: (§1) HTRF Assay for Measuring cAMP in Cells
(§2) The method is based on a competitive immunoassay between native cAMP, which has been produced by the cells, and cAMP which is labelled with XL665. The tracer binding was visualized by a monoclonal antibody, anti-cAMP labelled with cryptate [HTRF=homogeneous time-resolved fluorescence].
(§3) The specific signal is inversely proportional to the cAMP concentration of the samples employed.
(§4) The 665 nm/620 nm fluorescence ratio was evaluated.
(§5) The following material was used: 96-well plates for the tissue culture, 96-well plates with black edge and black base (e.g. Fluotrac 600 from Greiner), 96-well plates for the substance dilutions of polypropylene and cAMP Femtomolar (4000 wells Kit, CIS Bio International # 62AM1PEC).
(§6) The following reagents were used: BSA (bovine serum albumin) Fraction V protease-free, IBMX (3-isobutyl-1-methylxanthine), hFSH (human follicle stimulating hormone), Triton X-100 analytical grade, potassium fluoride analytical grade, G 418 (Geneticin) and Accutase.
(§7) Buffer 1 (washing and testing buffer) contained PBS, 1 mM CaCl2, 1 mM MgCl2, 0.2% glucose; 0.1% BSA, 1 mM IBMX. Buffer 2 (2× lysis buffer) contained 1% Triton X-100 in PBS (without CaCl2 and MgCl2). Buffer 3 (assay buffer) contained 50 mM potassium phosphate buffer (pH 7.0); 800 mM potassium fluoride; 0.2% BSA (always added fresh).
(§8) On day 1, the cells were seeded in 96-well plates (3×10^4 cells per well hFSHR clone 16 cells (CHO cells stably transfected with the human FSH receptor in 150 μl of medium). The next day, test substance dilutions were made up. For this purpose, all the substances were diluted in ice-cold buffer 1 (with or without hFSH), and the substance dilutions were placed on ice until applied to the cells.
(§9) The cell supernatant was then aspirated off, and the cells were washed 2× with 200 μl of buffer 1. The cells were treated with 60 μl of the appropriate substance concentrations at 37° C. for 2 h. The cells were then lysed with 60 μl of buffer 2 (put onto the supernatant) (on a plate shaker at RT for 30 min).
(§10) The test conjugates (XL-665 and anti-cAMP cryptate) were diluted in buffer 3 in accordance with the manufacturers' information. The actual mixture for measurement was pipetted into a black 96-well plate (in each case 15 μl of the cell lysate diluted with 35 μl of buffer 1; firstly 25 μl of XL-665 conjugate were pipetted and, after 10 min, 25 μl of the anti-cAMP cryptate were added). This is followed by incubation at RT for 90 minutes. The measurement was carried out in a PheraStar (BMG).
(§11) Dose-effect curve (hFSH) for the human receptor: 1e-8, 3e-9, 1 e-9, 3e-10, 1e-10, 3e-11, 1e-11, 3e-12 mol/l.
(§12) The test substances were employed in suitable dilutions in the absence (test for agonism) and in the presence of 1e-9 mol/l hFSH.
(§13) The values of the well ratio were averaged and then entered directly in SigmaPlot versus the concentrations. The maximum and minimum values were determined for each plate, and half the difference is to be regarded as IC50.

Assay [2] deals with T1, human FSH receptor. As to the kind of experiment: HTRF assay for measuring cAMP in cells, test for agonism (in the absence of hFSH). Type of assay: cell-based. The following applies: hFSHR clone 16 cells (CHO cells stably transfected with the human FSH receptor), 37° C. for 2 h, read-out: EC50 (FSH agonistic effect in the HTRF assay). The protocol:
as §1, §2, §3, §4, §5, §6, §7, §8, §9, §10, §11, §12, §13

For orientation: pIC50 means the IC50 on a negative log10 scale, so that one unit is a factor of ten. The term pEC50 denotes the negative decadic logarithm of the EC50, by convention in mol/L. On to `CCOc1ccc(-c2cccc(OC)c2)cc1C(=O)N[C@@H](CCO)Cc1c[nH]c2ccccc12` [Example 2, 4-Ethoxy-3′-methoxy-biphenyl-3-carboxylic acid [(R)-3-hydroxy-1-(1H-indol-3-ylmethyl)-propyl]-amide], for which the pIC50 at human FSH receptor [1] was 6.52. Besides, at human FSH receptor [2], the pEC50 was under 5.00. In the same order, the values of `CNC(=O)c1ccc(-c2ccc(OC(C)C)c(C(=O)N[C@@H](CCO)Cc3c[nH]c4ccccc34)c2)cc1Cl` [Example 3, 3′-Chloro-4-isopropoxy-biphenyl-3,4′-dicarboxylicacid 3-{[(R)-3-hydroxy-1-(1H-indol-3-ylmethyl)-propyl]-amide} 4′-methylamide] are 7.60 and under 5.00.

Take `COc1ccccc1C#Cc1ccc(OC(C)C)c(C(=O)N[C@@H](CCO)Cc2c[nH]c3ccccc23)c1` [Example 5, N-[(R)-3-Hydroxy-1-(1H-indol-3-ylmethyl)-propyl]-2-isopropoxy-5-(2-methoxy-phenylethynyl)-benzamide]: the pIC50 on human FSH receptor [1] was 6.82. Also, the negative logarithm of the EC50 (pEC50) on human FSH receptor [2] was under 5.00. For `COc1ccc2nc(-c3cc(OC)c(OC)c(OC)c3)cc(C(=O)N[C@@H](CCO)Cc3ccc4ccccc4c3)c2c1` [Example 8, 6-Methoxy-2-(3,4,5-trimethoxy-phenyl)-quinoline-4-carboxylic acid ((R)-3-hydroxy-1-naphthalen-2-ylmethyl-propyl)-amide], in that order: under 5.00 and 5.15.

On to `COc1ccc2nc(-c3cc(OC)c(OC)c(OC)c3)cc(C(=O)N[C@@H](CCO)Cc3csc4ccccc34)c2c1` [Example 9, 6-Methoxy-2-(3,4,5-trime-thoxy-phenyl)-quinoline-4-carboxylic acid ((R)-1-benzo-[b]thiophen-3-ylmethyl-3-hydroxy-propyl)-amide], for which the pIC50 at human FSH receptor [1] was under 5.00. As for `COc1ccc2nc(-c3cc(OC)c(OC)c(OC)c3)cc(C(=O)N[C@@H](CCO)Cc3ccsc3)c2c1` [Example 12, 6-Methoxy-2-(3,4,5-trime-thoxy-phenyl)-quinoline-4-carboxylic acid ((R)-3-hydroxy-1-thiophen-3-yl-methyl-propyl)-amide], the pIC50 at human FSH receptor [1] was under 5.00. Also, the pEC50 on human FSH receptor [2] was 5.30.

With `COc1ccc2nc(-c3cc(OC)c(OC)c(OC)c3)cc(C(=O)N[C@H](CCO)Cc3c[nH]c4ccccc34)c2c1` [Example 14, 6-Methoxy-2-(3,4,5-trimethoxy-phenyl)-quinoline-4-carboxylic acid [(S)-3-hydroxy-1-(1H-indol-3-yl-methyl)-propyl]-amide], the pIC50 at human FSH receptor [1] was under 5.00. Further, the pEC50 at human FSH receptor [2] is 5.22. Take `COc1ccc2nc(-c3cc(OC)c(OC)c(OC)c3)cc(C(=O)N[C@H](CCO)Cc3ccccc3)c2c1` [Example 17, 6-Methoxy-2-(3,4,5-trime-thoxy-phenyl)-quinoline-4-carboxylic acid ((S)-1-benzyl-3-hydroxy-propyl)-amide]: the pIC50 on human FSH receptor [1] was under 5.00. Also, on human FSH receptor [2], the pEC50 was 5.10.
